From ChEMBL document CHEMBL1201862, “PubChem BioAssay data set” (2004)
Structures can show the parent of a compound that is named as a salt.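 A five-concentration, 48-hour dose response in 96-well plates underlies each endpoint, interpolated linearly between surrounding concentrations. The concentration for 50% growth inhibition is given as GI50.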 Calls of active or inactive are those of the source. Rule as the data show it: active = GI50 up to about 1.1 µM and inactive = higher.

Key:
Experiment in all cases: NCI-60 cell line screen, 48 h
[1] = tested on: LOX IMVI
[2] = tested on: UACC-62
[3] = tested on: SF-268
[4] = tested on: NCI-H460
[5] = tested on: COLO 205
[6] = tested on: RPMI-8226
[7] = tested on: KM-20L2
[8] = tested on: UACC-257
[9] = tested on: KM12
[10] = tested on: SF-539
[11] = tested on: HL-60
[12] = tested on: SW-620
[13] = tested on: LXFL 529
[14] = tested on: DMS-114
[15] = tested on: HCT-116
[16] = tested on: U-251
[17] = tested on: CAKI-1
[18] = tested on: PC-3
[19] = tested on: Hs-578T
[20] = tested on: MDA-N

Measured: GI50

COc1ccc(-c2cc(O)c3cc(Cl)ccc3n2)cc1
inactive: [1] > 100 µM | [2] > 100 µM | [3] > 100 µM | [4] > 100 µM | [5] > 100 µM | [6] > 100 µM | [7] > 100 µM | [8] > 100 µM | [9] 91.8 µM | [10] > 100 µM | [11] > 100 µM | [12] > 100 µM | [13] > 100 µM | [14] > 100 µM | [15] > 100 µM

COc1ccc(-c2ccccc2)c(N/N=C2\CCCNC2=O)c1
inactive: [1] > 100 µM | [2] 49 µM | [3] 43.5 µM | [4] > 100 µM | [5] > 100 µM | [6] > 100 µM | [7] > 100 µM | [8] > 100 µM | [9] > 100 µM | [10] 50.7 µM | [12] > 100 µM | [13] > 100 µM | [14] > 100 µM | [15] 13.1 µM | [16] > 100 µM

O=C(CCc1nnc2s/c(=C\c3ccccc3Cl)c(=O)n12)Nc1cc(Cl)ccc1Cl
inactive: [1] > 100 µM | [2] > 100 µM | [3] > 100 µM | [4] > 100 µM | [6] > 100 µM | [8] > 100 µM | [9] > 100 µM | [10] > 100 µM | [11] > 100 µM | [17] > 100 µM | [12] > 100 µM | [13] > 100 µM | [14] > 100 µM | [15] > 100 µM | [16] > 100 µM

[O-]/N=[N+](/[O-])C1CCCCC1=[N+]1CCOCC1 (stereo unspecified)
inactive: [2] > 100 µM | [3] > 100 µM | [4] > 100 µM | [5] > 100 µM | [6] > 100 µM | [8] > 100 µM | [9] > 100 µM | [11] > 100 µM | [17] > 100 µM | [12] > 100 µM | [13] > 100 µM | [14] > 100 µM | [15] > 100 µM | [16] > 100 µM

O=C1OC(c2ccccc2)=N/C1=C/NC(Cc1c[nH]c2ccccc12)C(=O)O (stereo unspecified)
inactive: [1] > 100 µM | [2] > 100 µM | [3] > 100 µM | [4] > 100 µM | [5] > 100 µM | [6] > 100 µM | [7] > 100 µM | [8] > 100 µM | [10] > 100 µM | [11] > 100 µM | [12] > 100 µM | [13] > 100 µM | [14] > 100 µM | [15] > 100 µM | [16] > 100 µM

O=C1c2ccccc2C(=O)c2nc3c(O)cccc3cc21
inactive: [1] 13.9 µM | [2] 37.3 µM | [3] 7.96 µM | [4] 9.08 µM | [5] 23.8 µM | [6] 6.47 µM | [7] 26.7 µM | [8] 10.3 µM | [9] 47.6 µM | [10] 28.4 µM | [17] 93.1 µM | [12] 3.57 µM | [13] 4.57 µM | [14] 3.81 µM | [15] 4.12 µM | [16] 20.8 µM

C1=C(c2ccccc2)SC(N2CCCCC2)S1 (stereo unspecified)
inactive: [1] 72.9 µM | [2] > 100 µM | [3] > 100 µM | [4] > 100 µM | [5] > 100 µM | [6] 59.7 µM | [7] > 100 µM | [8] > 100 µM | [9] > 100 µM | [10] > 100 µM | [11] 69 µM | [12] > 100 µM | [13] 77.3 µM | [14] 60.1 µM | [15] > 100 µM | [16] > 100 µM

Cc1ccc(NCC2(/N=C/c3ccccc3)OC(CO)C(O)C2O)cc1 (stereo unspecified)
inactive: [2] 54.1 µM | [3] 81.1 µM | [4] 32.7 µM | [5] 42.2 µM | [6] 35 µM | [7] 20.8 µM | [8] > 100 µM | [9] 67.9 µM | [10] 41.7 µM | [11] 20.5 µM | [17] 46.6 µM | [12] 36.7 µM | [13] 77.6 µM | [14] 40 µM | [15] 36.6 µM | [16] 24.2 µM

O=C(CC1(O)C(=O)Nc2ccc(Br)cc21)c1cccc([N+](=O)[O-])c1 (stereo unspecified)
inactive: [1] 32.4 µM | [3] 39 µM | [4] > 100 µM | [5] > 100 µM | [6] 18.3 µM | [7] 74.6 µM | [8] 27.9 µM | [9] 42.6 µM | [11] 27.7 µM | [17] 40.9 µM | [12] 37.8 µM | [13] 22.5 µM | [16] > 100 µM

O=C1NC2CCC(C2)C1c1ccccc1 (stereo unspecified)
inactive: [1] > 100 µM | [2] > 100 µM | [3] > 100 µM | [4] > 100 µM | [5] > 100 µM | [6] > 100 µM | [9] > 100 µM | [10] > 100 µM | [11] > 100 µM | [12] > 100 µM | [13] > 100 µM | [14] > 100 µM | [16] > 100 µM

COC(=O)c1cc(CC(C)C)c2c(c1)[nH]c1ccccc12
inactive: [1] > 100 µM | [2] 96.8 µM | [3] > 100 µM | [4] > 100 µM | [5] > 100 µM | [7] > 100 µM | [8] > 10 µM | [9] 91.2 µM | [10] > 100 µM | [17] > 100 µM | [12] 47.2 µM | [13] > 100 µM | [14] 50.4 µM | [15] > 100 µM | [16] > 100 µM

O=C1C2C3C=CC(C2C(=O)N1CO)C1C2C(=O)N(CO)C(=O)C2C31 (stereo unspecified)
inactive: [1] > 45 µM | [2] > 100 µM | [3] > 50.4 µM | [4] 27.9 µM | [5] > 48.2 µM | [6] 21.8 µM | [7] > 31.6 µM | [8] > 100 µM | [9] > 74.3 µM | [10] > 61 µM | [17] > 100 µM | [12] 33.5 µM | [13] > 81.1 µM | [14] 42 µM | [15] > 44.5 µM | [16] > 67.1 µM

CNNCc1ccc(C(=O)NC(C)C)cc1 [PROCARBAZINE HYDROCHLORIDE]
inactive: [1] > 486 µM | [2] 366 µM | [3] > 500 µM | [4] > 500 µM | [18] > 500 µM | [5] > 500 µM | [6] 465 µM | [7] 380 µM | [8] 450 µM | [9] > 500 µM | [10] > 500 µM | [11] > 478 µM | [19] > 500 µM | [12] > 500 µM | [20] > 500 µM | [13] > 500 µM | [15] > 500 µM
